According to publication PMC3132063 (2011):

Molecular target: Janus kinase 2 (JAK2) (Homo sapiens, UniProt O60674)
Sequence (O60674 whole entry): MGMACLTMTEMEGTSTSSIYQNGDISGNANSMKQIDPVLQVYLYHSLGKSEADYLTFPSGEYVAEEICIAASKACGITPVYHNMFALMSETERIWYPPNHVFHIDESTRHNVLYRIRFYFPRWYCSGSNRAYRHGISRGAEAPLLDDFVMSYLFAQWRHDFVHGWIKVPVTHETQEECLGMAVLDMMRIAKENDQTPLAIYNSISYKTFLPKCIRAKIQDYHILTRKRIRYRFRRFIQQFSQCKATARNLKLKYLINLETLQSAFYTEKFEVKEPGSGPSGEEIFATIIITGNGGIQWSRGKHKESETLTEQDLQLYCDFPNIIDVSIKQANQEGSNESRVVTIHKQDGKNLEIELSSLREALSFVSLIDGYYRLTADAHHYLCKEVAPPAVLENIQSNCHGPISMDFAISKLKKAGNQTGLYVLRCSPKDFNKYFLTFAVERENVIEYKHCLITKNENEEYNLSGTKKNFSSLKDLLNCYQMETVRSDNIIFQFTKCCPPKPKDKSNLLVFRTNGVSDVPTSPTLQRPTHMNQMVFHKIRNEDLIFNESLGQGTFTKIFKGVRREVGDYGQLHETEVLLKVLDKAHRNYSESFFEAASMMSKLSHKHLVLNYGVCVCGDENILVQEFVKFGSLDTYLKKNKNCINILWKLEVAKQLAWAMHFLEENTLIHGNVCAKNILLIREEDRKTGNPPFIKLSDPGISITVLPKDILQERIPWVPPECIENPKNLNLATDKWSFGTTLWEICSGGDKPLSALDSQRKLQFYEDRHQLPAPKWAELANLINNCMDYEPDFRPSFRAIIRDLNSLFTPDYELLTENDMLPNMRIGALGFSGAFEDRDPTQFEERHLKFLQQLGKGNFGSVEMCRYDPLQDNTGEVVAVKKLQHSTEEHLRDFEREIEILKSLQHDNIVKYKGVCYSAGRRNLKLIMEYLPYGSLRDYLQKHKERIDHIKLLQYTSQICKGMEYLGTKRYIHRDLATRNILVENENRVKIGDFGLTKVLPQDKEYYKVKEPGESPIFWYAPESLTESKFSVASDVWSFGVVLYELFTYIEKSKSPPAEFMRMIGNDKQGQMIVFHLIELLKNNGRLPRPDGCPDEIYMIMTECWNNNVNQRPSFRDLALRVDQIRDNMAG

With CN1CCN(c2cccc(Nc3nc4c(-c5ccc(S(C)(=O)=O)cc5)cccn4n3)c2)CC1 [CEP-33779] the IC50 was 1.8 ± 0.6 nM.
